# Measured values published in patent US20220169639A1 (priority 2018, published 2022).
# System: HBeAg (surrogate marker for cccDNA) in HepDES19 cells
# Assay: Engineered HepDES19 primary screen assay (HBeAg ELISA)
# Assay type: cell-based, HBV
# Details: Hepatitis B virus, 120 h, HBeAg in culture supernatant, 5 days incubation, read-out: IC50 (HepDES19 primary screen assay, inhibition of extracellular HBeAg level)
# Excerpt: The assay was employed to screen for cccDNA inhibitors. HepDES19 is a cccDNA-producing cell line. In this cell line, HBeAg in the cell culture supernatant as surrogate marker, as HBeAg production depends on cccDNA level and activity. HepDES19 is an engineered cell line which contains a 1.1 unit length HBV genome, and pgRNA transcription from the transgene is controlled by Tetracycline (Tet). In the absence of Tet, pgRNA transcription will be induced, but HBV e antigen (HBeAg) could not be produced from this pgRNA due to very short leader sequence before the HBeAg start codon and the start codon is disrupted. Only after cccDNA is formed, the missing leader sequence and start codon mutation would be restored from the 3′-terminal redundancy of pgRNA, and then HBeAg could be synthesized. Therefore, HBeAg could be used as a surrogate marker for cccDNA (Zhou, T. et al., Antiviral Res. (2006), 72(2), 116-124; Guo, H. et al., J. Virol. (2007), 81(22), 12472-12484).
# HepDES19 cells were seeded at 2×10^6 cells per T150 flask and cultured with the culture medium (Dulbecco's Modified Eagle Medium: Nutrient Mixture F-12 [DMEM-F12, Gibco Cat. 11320-82], 10% Fetal Bovine Serum [FBS, Clontech Cat. 631101], 0.1 mM Non-Essential Amino Acids Solution [NEAA, Gibco Cat. 11140-050], 50 μg/mL Penicillin-Streptomycin [PS, Invitrogen Cat. 15140-163], 500 μg/mL Geneticin [G418, Invitrogen Cat. 10131-027]) containing 3 μg/mL Tet (Sigma, Cat. 87128) for 5 days. Cells were then seeded at 4×10^6 cells per T150 in the same culture medium as described above in the absence of Tet for 8 days. Cells were then harvested and frozen at density of 2×10^6 cells per mL. For compound testing, the frozen cells were thawed and seeded into 96-well plates at a density of 6×10^4 cells per well. At 24 hours after seeding, half log serial dilutions of compounds made with Dimethyl sulfoxide (DMSO, Sigma, Cat. D2650) were further diluted with the same culture medium as described above before they were added to the cells to reach desired final compound concentrations and 1% DMSO concentration. Plates were then incubated at 37° C. for another 5 days before measurement of HBeAg level and cell viability. Intracellular HBeAg level were measured with enzyme-linked immunosorbent assay (ELISA) kit (Shanghai Kehua Diagnostic Medical Products Co., Ltd). Cell viability was assessed using Cell Counting Kit-8 (DonJindo, Cat. CK04-20). IC50 values were derived from the dose-response curve using 4 parameter logistic curve fit method.
# The compounds of the present invention were tested for their capacity to inhibit extracellular HBeAg level as described herein.
row,SMILES,IC50 [nM]
1,"O=C(O)[C@H]1CCN(CC(O)COc2cc(C(F)(F)F)ccc2-c2cc(=O)c3cccc(Cl)c3o2)C1 (stereo partly drawn) [Example 163, (3S)-1-[3-[2-(8-chloro-4-oxo-chromen-2-yl)-5-(trifluoromethyl)phenoxy]-2-hydroxy-propyl]pyrrolidine-3-carboxylic acid]",2760
2,"Cc1cc(-c2cc(=O)c3cccc(Cl)c3o2)c(OCCN2CCC[C@@H]2C(=O)O)cc1Br [Example 044, (2R)-1-[2-[5-bromo-2-(8-chloro-4-oxo-chromen-2-yl)-4-methyl-phenoxy]ethyl]pyrrolidine-2-carboxylic acid]",4750
3,CNS(=O)(=O)NCCCOc1cc(C)ccc1-c1cc(=O)c2cccc(Cl)c2o1 [Example 107],2710
4,Cc1ccc(-c2cc(=O)c3cccc(Cl)c3o2)c(OCCNC(=O)NCC(=O)O)c1 [Example 154],1430
5,"O=c1cc(-c2ccc(C(F)(F)F)cc2OCC(O)CNS(=O)(=O)C2CC2)oc2c(Cl)cccc12 (centres unmarked) [Example 086, N-[3-[2-(8-chloro-4-oxo-chromen-2-yl)-5-(trifluoromethyl)phenoxy]-2-hydroxy-propyl]cyclopropanesulfonamide]",3220
6,CC(C)[C@@H]1NC(=O)N(CCOc2cc(C(F)(F)F)ccc2-c2cc(=O)c3cccc(Cl)c3o2)C1=O [Example 153],830
7,"Cc1cc(-c2cc(=O)c3cccc(Cl)c3o2)c(OCCCNC2CC(C(=O)O)C2)cc1Cl (centres unmarked) [Example 046, 3-[3-[5-chloro-2-(8-chloro-4-oxo-chromen-2-yl)-4-methyl-phenoxy]propylamino]cyclobutanecarboxylic acid]",4370
8,"Cc1ccc(-c2cc(=O)c3cccc(Cl)c3o2)c(OCCNC(C)(C)C(=O)O)c1 [Example 058, 2-[2-[2-(8-chloro-4-oxo-chromen-2-yl)-5-methyl-phenoxy]ethylamino]-2-methyl-propanoic acid]",3410
9,"O=C(O)C(CC1CCCCC1)NCCCOc1cc(C(F)(F)F)ccc1-c1cc(=O)c2cccc(Cl)c2o1 (centres unmarked) [Example 063, 2-[3-[2-(8-chloro-4-oxo-chromen-2-yl)-5-(trifluoromethyl)phenoxy]propylamino]-3-cyclohexyl-propanoic acid]",4320
10,CCC(=O)NCCCOc1cc(C(F)(F)F)ccc1-c1cc(=O)c2cccc(Cl)c2o1 [Example 099],6470
11,COc1cc(OCCNC(=O)C(=O)O)c(-c2cc(=O)c3cccc(Cl)c3o2)cc1OC [Example 114],870
12,CCOC(=O)C(=O)NCCOc1cc(C)ccc1-c1cc(=O)c2cc(OC)cc(Cl)c2o1 [Example 103],3660
13,"Cc1ccc(-c2cc(=O)c3cccc(Cl)c3o2)c(OCCNC(=O)N[C@@H](C)C(=O)O)c1 [Example 151, (2S)-2-[2-[2-(8-chloro-4-oxo-chromen-2-yl)-5-methyl-phenoxy]ethylcarbamoylamino]propanoic acid]",630
14,"CC(C)(C)CC(NCCCOc1cc(C(F)(F)F)ccc1-c1cc(=O)c2cccc(Cl)c2o1)C(=O)O (centres unmarked) [Example 011, 2-[3-[2-(8-chloro-4-oxo-chromen-2-yl)-5-(trifluoromethyl)phenoxy]propylamino]-4,4-dimethyl-pentanoic acid]",3610
15,"COc1ccc(-c2cc(=O)c3cccc(Cl)c3o2)c(OCCNC(=O)C(=O)O)c1 [Example 111, 2-[2-[2-(8-chloro-4-oxo-chromen-2-yl)-5-methoxy-phenoxy]ethylamino]-2-oxo-acetic acid]",180
16,CCOC(=O)C(=O)NCCOc1cc(OC)c(Br)cc1-c1cc(=O)c2cccc(Cl)c2o1 [Example 102],2910
17,O=c1cc(-c2ccc(Br)cc2OC2CCN(S(=O)(=O)C3CC3)CC2)oc2c(Cl)cccc12 [Example 108],1140
18,O=C(O)C(=O)N1CC(Oc2cc(C(F)(F)F)ccc2-c2cc(=O)c3cccc(Cl)c3o2)C1 [Example 127],80

row,SMILES,IC50 [nM]
1,"CS(=O)(=O)NC(=O)C1CCCN1CCOc1cc(Br)ccc1-c1cc(=O)c2cccc(Cl)c2o1 (centres unmarked) [Example 074, 1-[2-[5-bromo-2-(8-chloro-4-oxo-chromen-2-yl)phenoxy]ethyl]-N-methylsulfonyl-pyrrolidine-2-carboxamide]",1030
2,"Cc1cc(-c2cc(=O)c3cccc(Cl)c3o2)c(OCCOCCN2CCC[C@@H]2C(=O)O)cc1Br [Example 048, (2R)-1-[2-[2-[5-bromo-2-(8-chloro-4-oxo-chromen-2-yl)-4-methyl-phenoxy]ethoxy]ethyl]pyrrolidine-2-carboxylic acid]",6680
3,O=C(O)CN(CCCOc1cc(C(F)(F)F)ccc1-c1cc(=O)c2cccc(Cl)c2o1)CC(=O)O [Example 140],190
4,"CC(C)[C@@H](NCCOc1cc(C(F)(F)F)ccc1-c1cc(=O)c2cccc(Cl)c2o1)C(=O)O [Example 036, (2R)-2-[2-[2-(8-chloro-4-oxo-chromen-2-yl)-5-(trifluoromethyl)phenoxy]ethylamino]-3-methyl-butanoic acid]",2030
5,"O=c1cc(-c2ccc(Br)cc2OCCOCCN2CCOCC2)oc2c(Cl)cccc12 [Example 090, 2-[4-bromo-2-[2-(2-morpholinoethoxy)ethoxy]phenyl]-8-chloro-chromen-4-one]",1300
6,"CS(=O)(=O)NC(=O)C1CN(CCOc2cc(C(F)(F)F)ccc2-c2cc(=O)c3cccc(Cl)c3o2)CCO1 (centres unmarked) [Example 068, 4-[2-[2-(8-chloro-4-oxo-chromen-2-yl)-5-(trifluoromethyl)phenoxy]ethyl]-N-methylsulfonyl-morpholine-2-carboxamide]",5510
7,"NC(=O)C1CCN(CCOc2cc(Br)ccc2-c2cc(=O)c3cccc(Cl)c3o2)C1 (centres unmarked) [Example 083, 1-[2-[5-bromo-2-(8-chloro-4-oxo-chromen-2-yl)phenoxy]ethyl]pyrrolidine-3-carboxamide]",560
8,"CS(=O)(=O)NC(=O)[C@@H]1CCN(CCOc2cc(C(F)(F)F)ccc2-c2cc(=O)c3cccc(Cl)c3o2)C1 [Example 070, (3R)-1-[2-[2-(8-chloro-4-oxo-chromen-2-yl)-5-(trifluoromethyl)phenoxy]ethyl]-N-methylsulfonyl-pyrrolidine-3-carboxamide]",1010
9,"O=C(NCCOc1cc(C(F)(F)F)ccc1-c1cc(=O)c2cccc(Cl)c2o1)C(=O)NC1CC1 [Example 148, N-[2-[2-(8-chloro-4-oxo-chromen-2-yl)-5-(trifluoromethyl)phenoxy]ethyl]-N′-cyclopropyl-oxamide]",1210
10,"CC(NCCOc1cc(C(F)(F)F)ccc1-c1cc(=O)c2cccc(Cl)c2o1)C(=O)O (centres unmarked) [Example 057, 2-[2-[2-(8-chloro-4-oxo-chromen-2-yl)-5-(trifluoromethyl)phenoxy]ethylamino]propanoic acid]",1500
11,CC(=O)N(CCCOc1cc(C(F)(F)F)ccc1-c1cc(=O)c2cccc(Cl)c2o1)CC(=O)O [Example 144],11400
12,"O=C(O)C(=O)NCC1(COc2cc(C(F)(F)F)ccc2-c2cc(=O)c3cccc(Cl)c3o2)COC1 [Example 010, 2-[[3-[[2-(8-chloro-4-oxo-chromen-2-yl)-5-(trifluoromethyl)phenoxy]methyl]oxetan-3-yl]methylamino]-2-oxo-acetic acid]",220
13,O=C(O)CNCCOc1cc(C(F)(F)F)ccc1-c1cc(=O)c2cccc(Cl)c2o1 [Example 123],5110
14,"Cc1ccc(-c2cc(=O)c3cccc(Cl)c3o2)c(OCCNC(=O)C(=O)N2CC[C@H](O)C2)c1 [Example 150, N-[2-[2-(8-chloro-4-oxo-chromen-2-yl)-5-methyl-phenoxy]ethyl]-2-[(3S)-3-hydroxypyrrolidin-1-yl]-2-oxo-acetamide]",12200
15,COc1cc(OCCNC(=O)C(=O)O)c(-c2cc(=O)c3cccc(Cl)c3o2)cc1Br [Example 122],7720
16,"O=C(O)[C@H]1CCCN1CCCOc1cc(Br)ccc1-c1cc(=O)c2cccc(Cl)c2o1 [Example 003, (2R)-1-[3-[5-bromo-2-(8-chloro-4-oxo-chromen-2-yl)phenoxy]propyl]pyrrolidine-2-carboxylic acid]",2410
17,"O=C(O)C1CN(CCOc2ccccc2-c2cc(=O)c3cccc(Cl)c3o2)C1 [Example 033, 1-[2-[2-(8-chloro-4-oxo-chromen-2-yl)phenoxy]ethyl]azetidine-3-carboxylic acid]",1090
